From patent publication US20120220603A1, “SUBSTITUTED HETEROCYCLIC DERIVATIVES FOR THE TREATMENT OF PAIN AND EPILEPSY” (ZALICUS PHARMACEUTICALS LTD., priority 2009, published 2012)

Assays:
[1] = molecular target: T1, human Nav1.5 channel (Homo sapiens, UniProt Q14524); experiment: NaV1.5 sodium channel screening assay, PatchXpress automated electrophysiology, cardiac action potential waveform 1 Hz; type: cell-based; settings: cardiac action potential waveform at 1 Hz; HEK cells; read-out: HNAv 1.5 Cardiac AP 1 Hz IC50
T1 construct: expressed in transfected cells; host or cells: HEK cells
T1 sequence (Q14524 whole entry): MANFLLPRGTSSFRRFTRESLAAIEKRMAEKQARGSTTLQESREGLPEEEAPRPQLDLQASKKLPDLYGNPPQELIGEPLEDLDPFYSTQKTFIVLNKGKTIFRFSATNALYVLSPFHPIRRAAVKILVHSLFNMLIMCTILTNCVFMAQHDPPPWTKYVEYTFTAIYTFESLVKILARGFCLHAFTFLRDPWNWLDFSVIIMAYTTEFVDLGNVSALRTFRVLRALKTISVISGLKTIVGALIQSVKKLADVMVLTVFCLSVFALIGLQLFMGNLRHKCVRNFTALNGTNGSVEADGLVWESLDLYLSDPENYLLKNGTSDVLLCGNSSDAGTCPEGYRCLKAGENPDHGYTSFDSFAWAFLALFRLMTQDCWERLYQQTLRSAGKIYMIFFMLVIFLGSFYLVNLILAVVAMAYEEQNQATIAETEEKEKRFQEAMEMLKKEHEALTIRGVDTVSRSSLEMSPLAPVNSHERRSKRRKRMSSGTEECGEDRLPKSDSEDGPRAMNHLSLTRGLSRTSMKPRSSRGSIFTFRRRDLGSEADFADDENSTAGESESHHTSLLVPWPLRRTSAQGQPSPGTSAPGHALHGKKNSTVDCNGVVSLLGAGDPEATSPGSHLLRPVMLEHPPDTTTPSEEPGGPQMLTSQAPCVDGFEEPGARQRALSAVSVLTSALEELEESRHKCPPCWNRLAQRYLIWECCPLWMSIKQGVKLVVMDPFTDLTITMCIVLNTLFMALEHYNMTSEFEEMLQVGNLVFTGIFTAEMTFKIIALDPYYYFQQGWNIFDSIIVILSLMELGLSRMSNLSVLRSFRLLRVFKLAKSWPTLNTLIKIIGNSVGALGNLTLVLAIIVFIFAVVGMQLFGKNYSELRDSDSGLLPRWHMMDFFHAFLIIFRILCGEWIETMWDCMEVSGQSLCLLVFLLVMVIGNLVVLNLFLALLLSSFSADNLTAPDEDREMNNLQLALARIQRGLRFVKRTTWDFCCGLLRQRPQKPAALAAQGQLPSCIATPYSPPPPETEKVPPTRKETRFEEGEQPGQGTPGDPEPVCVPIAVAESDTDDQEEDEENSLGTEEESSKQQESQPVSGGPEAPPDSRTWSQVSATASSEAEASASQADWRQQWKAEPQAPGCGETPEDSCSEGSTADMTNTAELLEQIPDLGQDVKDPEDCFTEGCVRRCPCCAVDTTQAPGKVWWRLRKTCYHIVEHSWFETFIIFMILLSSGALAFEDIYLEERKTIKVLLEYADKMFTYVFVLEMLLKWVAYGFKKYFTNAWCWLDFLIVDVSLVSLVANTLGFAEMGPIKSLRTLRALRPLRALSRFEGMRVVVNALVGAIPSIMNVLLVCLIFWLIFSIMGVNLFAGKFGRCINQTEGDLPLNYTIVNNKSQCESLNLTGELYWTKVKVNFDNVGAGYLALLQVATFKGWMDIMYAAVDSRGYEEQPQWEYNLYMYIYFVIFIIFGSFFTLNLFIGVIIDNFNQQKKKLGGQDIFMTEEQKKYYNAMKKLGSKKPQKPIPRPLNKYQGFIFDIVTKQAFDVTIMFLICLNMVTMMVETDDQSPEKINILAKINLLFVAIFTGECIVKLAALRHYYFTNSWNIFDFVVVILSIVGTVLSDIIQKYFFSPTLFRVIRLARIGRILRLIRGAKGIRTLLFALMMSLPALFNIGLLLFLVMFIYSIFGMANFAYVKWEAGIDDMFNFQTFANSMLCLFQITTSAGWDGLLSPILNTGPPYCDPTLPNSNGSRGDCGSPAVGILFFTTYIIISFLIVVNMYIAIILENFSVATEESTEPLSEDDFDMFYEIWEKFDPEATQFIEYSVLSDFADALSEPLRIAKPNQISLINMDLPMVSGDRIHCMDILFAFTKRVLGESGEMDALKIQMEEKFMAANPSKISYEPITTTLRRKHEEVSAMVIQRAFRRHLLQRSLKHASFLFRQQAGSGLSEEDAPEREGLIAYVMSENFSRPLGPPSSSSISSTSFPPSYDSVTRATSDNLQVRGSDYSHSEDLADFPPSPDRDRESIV
Description: Inhibition of the TTX-resistant NaV1.5 sodium channel, a key cardiac ion channel, can have profound effects on the duration and amplitude of the cardiac action potential and can result in arrhythmias and other heart malfunctions. To assess the potential cardiac liability of compounds at an early stage in the drug discovery process, a NaV1.5 sodium channel screening assay is performed on Molecular Device's PatchXpress™ automated electrophysiology platform. Under voltage-calmp conditions, NaV1.5 currents were recorded from HEK cells expressing the human Nav1.5 channel in the absence and presence of increasing concentrations of the test compound to obtain an IC50 value. The external recording solution contained (in mM): 90 TEACl, 50 NaCl, 1.8 CaCl, 1 MgCl2, 10 HEPES, 10 glucose, adjusted to pH 7.4 with TEA-OH and to 300 mOsm with sucrose (if necessary), while the internal patch pipette solution contained (in mM): 129 CsF, 2 MgCl2, 11 EGTA, 10 HEPES, 3 Na2ATP adjusted to pH 7.2 with CsOH and to 290 mOsm with sucrose (if necessary). NaV1.5 channel currents were evoked using a cardiac action potential waveform at 1 Hz, digitized at 31.25 kHz and low-pass filtered at 12 kHz.

[2] = Rat Early Pharmacokinetic (EPK) study; type: in vivo; settings: PO, 3 mg/kg, formulation PG (propylene glycol)
Description: Male Sprague-Dawley rats were dosed via oral (PO) gavage in the detailed formulation. Blood samples were collected from the animals at 6 timepoints out to 4 hours post-dose. Pharmacokinetic analysis was performed on the LC-MS/MS measured concentrations for each timepoint of each compound.

With `O=C(CN1CCNCC1)Nc1cc(C(F)(F)F)cc(C(F)(F)F)c1` [Compound 5, N-(3,5-bis(trifluoromethyl)phenyl)-2-(piperazin-1-yl)acetamide] the IC50 [1] was 40 µM, the “Dose Normalized AUC” value [2] was 108 nM·h and the “Dose Normalized Cmax” value [2] was 48 nM. It also gave a Tmax ([2]; male, Sprague-Dawley, blood) of 1.8 h.
